According to article PMC6207720, “Identification and antitumor activity of a novel inhibitor of the NIMA-related kinase NEK6” (Scientific Reports, 2018):

How the values were obtained:
NEK1 = target: T1, NEK1 (Homo sapiens, UniProt Q96PY6); experiment: Off-chip Mobility Shift Assay (MSA) profiling, NEK1; format: biochemical; conditions: ATP approximating Km
T1 sequence (Q96PY6 1-1258): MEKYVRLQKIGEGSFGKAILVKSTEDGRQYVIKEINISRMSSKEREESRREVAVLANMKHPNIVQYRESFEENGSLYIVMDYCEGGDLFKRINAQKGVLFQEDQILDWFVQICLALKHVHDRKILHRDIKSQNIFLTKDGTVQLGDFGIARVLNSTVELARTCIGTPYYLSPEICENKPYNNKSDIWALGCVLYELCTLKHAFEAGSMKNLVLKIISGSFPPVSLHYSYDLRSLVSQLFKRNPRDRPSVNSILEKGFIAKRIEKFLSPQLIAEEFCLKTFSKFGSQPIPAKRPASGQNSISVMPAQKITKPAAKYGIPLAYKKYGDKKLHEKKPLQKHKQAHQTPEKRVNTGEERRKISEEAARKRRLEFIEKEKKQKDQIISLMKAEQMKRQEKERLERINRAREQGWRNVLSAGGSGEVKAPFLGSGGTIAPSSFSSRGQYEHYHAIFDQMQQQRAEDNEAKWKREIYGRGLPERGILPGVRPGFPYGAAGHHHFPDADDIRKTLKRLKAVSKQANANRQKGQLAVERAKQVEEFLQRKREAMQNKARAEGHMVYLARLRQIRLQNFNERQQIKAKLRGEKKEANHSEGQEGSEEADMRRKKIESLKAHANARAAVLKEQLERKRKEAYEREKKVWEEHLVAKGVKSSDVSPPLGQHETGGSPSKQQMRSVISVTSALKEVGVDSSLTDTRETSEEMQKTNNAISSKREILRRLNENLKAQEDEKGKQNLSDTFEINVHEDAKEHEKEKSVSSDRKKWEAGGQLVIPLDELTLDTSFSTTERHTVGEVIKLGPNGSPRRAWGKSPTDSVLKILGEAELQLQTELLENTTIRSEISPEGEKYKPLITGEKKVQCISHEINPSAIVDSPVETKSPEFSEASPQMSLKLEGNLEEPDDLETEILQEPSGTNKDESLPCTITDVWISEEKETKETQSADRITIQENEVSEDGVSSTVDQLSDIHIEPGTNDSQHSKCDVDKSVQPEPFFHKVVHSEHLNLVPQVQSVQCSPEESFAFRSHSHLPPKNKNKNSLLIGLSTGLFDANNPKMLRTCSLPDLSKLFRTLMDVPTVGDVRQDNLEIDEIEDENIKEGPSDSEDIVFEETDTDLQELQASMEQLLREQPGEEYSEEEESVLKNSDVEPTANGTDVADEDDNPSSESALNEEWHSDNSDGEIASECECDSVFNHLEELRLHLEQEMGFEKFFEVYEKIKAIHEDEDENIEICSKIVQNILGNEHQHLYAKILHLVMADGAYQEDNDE
Protocol: Therefore, we decided to evaluate the selectivity of compound 8 against a panel of NEK kinases at 10 µM, using the technique of Off-chip Mobility shift assay. This concentration was chosen according to the guidelines proposed by Knight and Shokat, since the probability of off-target effects increases dramatically above 10 µM[36]. Furthermore, ATP concentration was set to approximate the Km,ATP for each kinase, so that the resulting selectivity profile directly reflects the intrinsic affinities of the inhibitor[37]. […] A major consequence of this substitution may be the redistribution of surface charges at the flexible activation loop resulting in an altered electrostatic potential and ability of NEK6 kinase to interact with other molecules.
The inhibitory activity of compounds 8 and 21 on NEK6 was also verified with MSA technique (Off-chip Mobility shift assay) (CARNA Biosciences Study ID: CBS170097, CARNA Biosciences, Kobe). […] PKR Inhibitor was used as positive control. For profiling study against NEK kinases (i.e. NEK1, NEK2, NEK6, NEK7, NEK9) (CARNA Biosciences Study ID: CBS170098), 8 was tested at 10 μM and ATP concentration approximating Km for each kinase. Assay condition for kinases are available on “Kinase profiling book” downloading by www.carnabio.com (https://www.carnabio.com/output/pdf/ProfilingProfilingBook_en.pdf).

NEK6 = target: T2, NEK6 (Homo sapiens, UniProt Q9HC98); experiment: LANCE-Ultra NEK6 kinase assay; format: biochemical; conditions: 100 µM ATP
T2 construct: purchased Carna 05-130
T2 sequence (Q9HC98 whole entry): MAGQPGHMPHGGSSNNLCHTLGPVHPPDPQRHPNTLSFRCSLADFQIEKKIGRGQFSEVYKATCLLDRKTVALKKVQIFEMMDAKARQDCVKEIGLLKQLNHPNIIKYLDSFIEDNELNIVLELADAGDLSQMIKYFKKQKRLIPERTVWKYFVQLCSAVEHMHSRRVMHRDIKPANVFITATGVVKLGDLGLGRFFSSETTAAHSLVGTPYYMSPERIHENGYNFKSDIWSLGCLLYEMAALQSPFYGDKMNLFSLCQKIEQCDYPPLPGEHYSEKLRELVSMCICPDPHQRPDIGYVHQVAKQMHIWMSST
Protocol: The twenty-five compounds resulting from virtual screening were firstly tested for the ability to inhibit the enzymatic activity of NEK6 at a single concentration of 30 µM, using LANCE technology. Quercetin, able to inhibit a broad panel of kinase, was used as positive control of inhibition[12],[30]. This initial screening allowed the identification of two compounds determining >70% NEK6 inhibition at 30 µM, i.e. compound 8 (6-hydroxy-4-methyl-2-oxo-5-[(5-phenyl (2-furyl)) methylene] pyridine-3-carbonitrile), and 21 (6-amino-2-phenyl-5,7,9-triazatetracyclo[8.7.0.0^3,^8 0^11,^16]heptadeca-1(10),3(8),6,11,13,15 hexaene-4,17-dione) (Fig. 4). […] The possible binding mode of compound 8 in the ATP-binding site of NEK6 as well as nonbonded interactions across the complex interface are shown in Fig. 6. Compound 8 may use its phenyl ring and furyl ring to form hydrophobic Pi-alkyl interactions with Ala72 (strand β3), Ala125 (hinge region) and Val59 (strand β2) of the ATP binding site (Fig. 6B). […] This is particulary relevant when considering that C–H···O hydrogen bonds play an important role in the ligand-binding process[33]–[35].
Compounds (i.e. 1 to 25) (Molport, Riga, LV-1011, Latvia) were dissolved in DMSO 100% as 10 mM stock and stored at −20 C. Activity of the compounds as NEK6 inhibitors was tested using LANCE NEK6 Ultra Kinase Assays protocol (U-TRF #25 technical note, PerkinElmer, Monza, MB). Compounds were first tested at 30 µM and incubated with 4 nM NEK6 (Carna, Chuo-ku, Kobe, Japan, # 05-130), 50 nM ULight-p70 S6K Peptide (PerkinElmer # TRF0126) and 100 μM ATP (Sigma-Aldrich, Saint Louis, U.S.A, # A2383) at room temperature. Kinase reactions were terminated after 90 minutes by the addition of EDTA and the signal was read with the Enspire plate reader (PerkinElmer) in TR-FRET mode (excitation at 320 nm and emission at 665 nm) after 60 minutes. Inhibition of NEK6 activity was calculated as percentage with respect to the control sample (100% of activity). Quercetin was used as positive control (Molport). […] For each compound the dose inhibiting 50% of NEK6 activity (IC50) was calculated using the GraphPad Prism 5.0 Software (San Diego, CA, USA).

- inhibition at 10 µM (NEK1): 47%
- IC50 (NEK6; LANCE-Ultra, mean ± SEM of 4 independent experiments): 3.4 ± 1.2 µM
- inhibition at 30 µM (NEK6; single concentration 30 µM, LANCE): > 70%
SMILES: CC1=C(C#N)C(O)=NC(=O)/C1=C\c1ccc(-c2ccccc2)o1 [Compound 8, (5Z)-2-hydroxy-4-methyl-6-oxo-5-[(5-phenylfuran-2-yl)methylidene]-5,6-dihydropyridine-3-carbonitrile]
